Experimental data as given in patent US20040115227A1, “Thermoformable solid pharmaceutical composition for controlled release of perindopril” (priority 2000, published 2004).
Structures can show the parent of a compound that is named as a salt.

How the values were obtained:
[1] = degradation during extrusion in the hot state; assay type: physicochemical; settings: extrusion in the hot state at temperatures of from 95° C. to 110° C.
Protocol: Moreover, and in surprising manner, it has been shown that the perindopril tert-butylamine salt, which is usually unstable to temperature or in association with certain acidic excipients, was not degraded, or only slightly degraded, during extrusion in the hot state carried out at temperatures of from 95° C. to 110° C. (less than 3% degradation).

[2] = stability study over 6 months; assay type: physicochemical; settings: variable temperature and relative humidity conditions, packaging of the aluminium/PVC blister type

SMILES: CCC[C@H](N[C@@H](C)C(=O)N1[C@H](C(=O)O)C[C@@H]2CCCC[C@@H]21)C(=O)OCC [perindopril tert-butylamine salt, perindopril]
- degradation [1]: less than 3%
- stability [2]: excellent stability
